The data set has as its system skin. Description: Photodynamic peeling: ointment applied to facial skin, then 635 nm excimer dye laser irradiation. Particulars: for time at which peeling was completed after the operation: 635 nm.
[1] abbreviates: Example 1: 10 g of 20% ointment, left half of face, 4 hours, 5 J/cm^2 for 30 minutes.
Setting [2] is: Example 2: 5 g of 20% ointment, right cheek, 12 hours, 5 J/cm^2 for 15 minutes.

Each structure is given as a SMILES string. Where a name gives a salt, the structure may show the parent alone.

For the compound `NCC(=O)CCC(=O)O` [5-ALA hydrochloride, 5-aminolevulinic acid], the “condition of treated part in follow-up survey” value is given as “still remained in favorable conditions” (Example 1: 6 months after the treatment) and “still remained in favorable conditions” (Example 2: 6 months after the treatment). The “day from which edematous erythema gradually disappeared” value amounted to 3 days under setting [1] and 3 days under setting [2]. For the same compound, the “skin reaction at the affected part after irradiation” value reads like this: under setting [1], “edematous erythema was formed at the affected part”; under setting [2], “edematous erythema was formed at the affected part”. In addition, the “time at which peeling was completed after the operation” value by setting is: (Example 1: person, 10 g of 20% by weight ointment on left half of face, 4 hours shaded, 5 J/cm^2 for 30 minutes) 3 weeks; (Example 2: person, 5 g of 20% by weight ointment on right cheek (6 cm×6 cm), 12 hours shaded, 5 J/cm^2 for 15 minutes) 6 days. Besides, the “skin tension, wrinkles, pigmentation, acne spots compared with the untreated right part of the face” value (Example 1: treated left versus right part of face) was “obviously relieved”. Besides, under “Example 2: treated right cheek versus left cheek”, the “skin tension, wrinkles, pigmentation, acne spots compared with the corresponding part in the left cheek” value was “obviously relieved”.

For the origin of these results see patent publication US20020192253A1, “Peeling composition” (priority 1999, published 2002).
